Experimental data published in US7501430B2 (ArQule, Inc., priority 2006, dated 2009).

Target: T1, mutant B-RAF (Homo sapiens, UniProt P15056, V600E)
T1 construct: purchased Upstate (Charlottesville, Va.)
Assay: RAF biochemical assay (MEK-1 phosphorylation, anti-phospho MEK1/2 detection)
Conditions: for IC50: read-out: Mutant B-RAF IC50; for inhibition at 10 µM: read-out: Mutant B-RAF % inhibition
In short: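 Detection is by ELISA: after a 30 min room-temperature reaction, plate-captured GST-MEK-1 is probed with anti-phospho MEK1/2, then an AP-tagged secondary antibody with fluorescent Attophos read-out.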

T1 sequence (P15056 whole entry V600E): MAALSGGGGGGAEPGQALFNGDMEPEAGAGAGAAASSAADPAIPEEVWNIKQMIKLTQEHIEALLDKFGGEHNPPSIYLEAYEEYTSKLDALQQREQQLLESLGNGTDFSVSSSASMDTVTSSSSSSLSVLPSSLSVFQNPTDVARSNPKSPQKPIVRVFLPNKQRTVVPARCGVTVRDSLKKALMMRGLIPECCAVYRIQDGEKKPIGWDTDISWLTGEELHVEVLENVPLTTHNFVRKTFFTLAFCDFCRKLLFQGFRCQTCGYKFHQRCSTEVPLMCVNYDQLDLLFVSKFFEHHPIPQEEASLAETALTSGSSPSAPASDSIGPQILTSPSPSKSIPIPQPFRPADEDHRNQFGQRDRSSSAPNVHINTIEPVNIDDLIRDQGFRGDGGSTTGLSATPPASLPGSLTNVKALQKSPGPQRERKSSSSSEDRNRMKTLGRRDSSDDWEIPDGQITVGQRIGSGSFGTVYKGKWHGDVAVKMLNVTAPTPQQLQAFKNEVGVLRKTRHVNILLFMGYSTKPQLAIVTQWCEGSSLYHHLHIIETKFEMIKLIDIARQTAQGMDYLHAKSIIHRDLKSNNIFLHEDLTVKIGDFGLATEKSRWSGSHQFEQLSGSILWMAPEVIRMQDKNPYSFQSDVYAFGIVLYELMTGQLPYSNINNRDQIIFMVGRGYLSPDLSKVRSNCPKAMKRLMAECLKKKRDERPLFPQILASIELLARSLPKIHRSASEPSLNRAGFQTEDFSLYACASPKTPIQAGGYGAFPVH

Compound	IC50	inhibition at 10 µM
NCCCC(=O)Nc1ccccc1-c1nc2sccn2c1-c1ccnc(N[C@@H]2CCCN(S(=O)(=O)c3ccc(Cl)cc3)C2)n1 [Example 136, 4-amino-N-(2-{5-[2-({(3R)-1-[(4-chlorophenyl)sulfonyl]piperidin-3-yl}amino)pyrimidin-4-yl]imidazo[2,1-b][1,3]thiazol-6-yl}phenyl)butanamide]	> 3 µM	
COc1cccc(-c2nc3sccn3c2-c2ccnc(N[C@H]3CCCNC3)n2)c1 [Example 137, 4-[6-(3-methoxyphenyl)imidazo[2,1-b][1,3]thiazol-5-yl]-N-[(3S)-piperidin-3-yl]pyrimidin-2-amine]		42%
NCCC(=O)Nc1ccccc1-c1nc2sccn2c1-c1ccnc(N[C@@H]2CCCN(S(=O)(=O)c3ccc(Cl)cc3)C2)n1 [Example 138, N~1~-(2-{5-[2-({(3R)-1-[(4-chlorophenyl)sulfonyl]piperidin-3-yl}amino)pyrimidin-4-yl]imidazo[2,1-b][1,3]thiazol-6-yl}phenyl)-beta-alaninamide]		82%
COc1cccc(-c2nc3sccn3c2-c2ccnc(N[C@H]3CCCN(S(=O)(=O)c4ccc(Cl)cc4)C3)n2)c1 [Example 139, N-{(3S)-1-[(4-chlorophenyl)sulfonyl]piperidin-3-yl}-4-[6-(3-methoxyphenyl)imidazo[2,1-b][1,3]thiazol-5-yl]pyrimidin-2-amine]		41%
O=S(=O)(c1ccc(Cl)cc1)N1CCC[C@H](Nc2nccc(-c3c(-c4cccc(O)c4)nc4sccn34)n2)C1 [Example 140, 3-{5-[2-({(3S)-1-[(4-chlorophenyl)sulfonyl]piperidin-3-yl}amino)pyrimidin-4-yl]imidazo[2,1-b][1,3]thiazol-6-yl}phenol]	0.953 µM	
NCC(=O)Nc1ccccc1-c1nc2sccn2c1-c1ccnc(N[C@@H]2CCCN(S(=O)(=O)c3ccc(Cl)cc3)C2)n1 [Example 141, N~1~-(2-{5-[2-({(3R)-1-[(4-chlorophenyl)sulfonyl]piperidin-3-yl}amino)pyrimidin-4-yl]imidazo[2,1-b][1,3]thiazol-6-yl}phenyl)glycinamide]	0.814 µM	
COc1cccc(-c2nc3sccn3c2-c2ccnc(N[C@@H]3CCCN(S(=O)(=O)c4cccc(OC)c4)C3)n2)c1 [Example 142, 4-[6-(3-methoxyphenyl)imidazo[2,1-b][1,3]thiazol-5-yl]-N-{(3R)-1-[(3-methoxyphenyl)sulfonyl]piperidin-3-yl}pyrimidin-2-amine]		56%
O=S(=O)(c1cccc(O)c1)N1CCC[C@@H](Nc2nccc(-c3c(-c4cccc(O)c4)nc4sccn34)n2)C1 [Example 143, 3-{[(3R)-3-({4-[6-(3-hydroxyphenyl)imidazo[2,1-b][1,3]thiazol-5-yl]pyrimidin-2-yl}amino)piperidin-1-yl]sulfonyl}phenol]	0.019 µM	
COc1ccc(OC)c(-c2nc3sccn3c2-c2ccnc(N[C@@H]3CCCN(S(=O)(=O)c4ccc(Cl)cc4)C3)n2)c1 [Example 144, N-{(3R)-1-[(4-chlorophenyl)sulfonyl]piperidin-3-yl}-4-[6-(2,5-dimethoxyphenyl)imidazo[2,1-b][1,3]thiazol-5-yl]pyrimidin-2-amine]		69%
O=S(=O)(c1ccc(Cl)cc1)N1CCC[C@@H](Nc2nccc(-c3c(-c4cc(O)ccc4O)nc4sccn34)n2)C1 [Example 145, 2-{5-(2-({(3R)-1-[(4-chlorophenyl)sulfonyl]piperidin-3-yl}amino)pyrimidin-4-yl]imidazo[2,1-b][1,3]thiazol-6-yl}benzene-1,4-diol]	0.092 µM	
COc1cccc(-c2nc3sccn3c2-c2ccnc(N[C@@H]3CCCN(C[C@@H]4COC(C)(C)O4)C3)n2)c1 [Example 146, N-((3R)-1-{[(4R)-2,2-dimethyl-1,3-dioxolan-4-yl]methyl}piper-idin-3-yl)-4-[6-(3-methoxy-phenyl)imidazo[2,1-b][1,3]thiazol-5-yl]pyrimidin-2-amine]		43%
COc1cccc(-c2nc3sccn3c2-c2ccnc(N[C@@H]3CCCN(C[C@@H](O)CO)C3)n2)c1 [Example 147, (2R)-3-[(3R)-3-({4-[6-(3-methoxyphenyl)imidazo[2,1-b][1,3]thiazol-5-yl]pyrimidin-2-yl}amino)piperidin-1-yl]propane-1,2-diol]	> 3 µM	
OC[C@H](O)CN1CCC[C@@H](Nc2nccc(-c3c(-c4cccc(O)c4)nc4sccn34)n2)C1 [Example 148, (2R)-3-[(3R)-3-({4-[6-(3-hydroxyphenyl)imidazo[2,1-b][1,3]thiazol-5-yl]pyrimidin-2-yl}amino)piperidin-1-yl]propane-1,2-diol]	> 3 µM	
COc1ccc(S(=O)(=O)N2CCC[C@@H](Nc3nccc(-c4c(-c5cccc(OC)c5)nc5sccn45)n3)C2)cc1 [Example 149, 4-[6-(3-methoxyphenyl)imidazo[2,1-b][1,3]thiazol-5-yl]-N-{(3R)-1-[(4-methoxyphenyl)sulfonyl]piperidin-3-yl}pyrimidin-2-amine]	0.188 µM	
O=S(=O)(c1ccc(O)cc1)N1CCC[C@@H](Nc2nccc(-c3c(-c4cccc(O)c4)nc4sccn34)n2)C1 [Example 150, 3-{5-[2-({(3R)-1-[(4-hydroxyphenyl)sulfonyl]piperidin-3-yl}amino)pyrimidin-4-yl]imidazo[2,1-b][1,3]thiazol-6-yl}phenol]	0.009 µM	
COc1cccc(-c2nc3sccn3c2-c2ccnc(N[C@@H]3CCCN(S(C)(=O)=O)C3)n2)c1 [Example 151, 4-[6-(3-methoxyphenyl)imidazo[2,1-b][1,3]thiazol-5-yl]-N-[(3R)-1-(methylsulfonyl)piperidin-3-yl]pyrimidin-2-amine]	0.85 µM	

Compound	IC50	inhibition at 10 µM
CS(=O)(=O)N1CCC[C@@H](Nc2nccc(-c3c(-c4cccc(O)c4)nc4sccn34)n2)C1 [Example 152, 3-[5-(2-{[(3R)-1-(methylsulfonyl)piperidin-3-yl]amino}pyrimidin-4-yl)imidazo[2,1-b][1,3]thiazol-6-yl]phenol]	0.116 µM	
O=S(=O)(c1ccc(F)cc1)N1CCC(Nc2nccc(-c3c(-c4ccc(F)cc4)nc4sccn34)n2)CC1 [Example 153, 4-[6-(4-fiuorophenyl)imidazo[2,1-b][1,3]thiazol-5-yl]-N-{1-[(4-fluorophenyl)sulfonyl]piperidin-4-yl}pyrimidin-2-amine]	0.078 µM	
CCN1CCC(Nc2nccc(-c3c(-c4ccc(F)cc4)nc4sccn34)n2)CC1 [Example 154, N-(1-ethylpiperidin-4-yl)-4-[6-(4-fluorophenyl)imidazo[2,1-b][1,3]thiazol-5-yl]pyrimidin-2-amine]		36%
Fc1ccc(-c2nc3sccn3c2-c2ccnc(NC3CCNCC3)n2)cc1 [Example 155, 4-[6-(4-fluorophenyl)imidazo[2,1-b][1,3]thiazol-5-yl]-N-piperidin-4-ylpyrimidin-2-amine]	2.36 µM	
CCNC(=O)N1CCC(Nc2nccc(-c3c(-c4ccc(F)cc4)nc4occn34)n2)CC1 [Example 156, N-ethyl-4-({4-[6-(4-fluorophenyl)imidazo[2,1-b][1,3]oxazol-5-yl]pyrimidin-2-yl}amino)piperidine-1-carboxamide]	0.428 µM	
O=S(=O)(c1ccc(F)cc1)N1CCC(Nc2nccc(-c3c(-c4ccc(F)cc4)nc4occn34)n2)CC1 [Example 157, 4-[6-(4-fluorophenyl)imidazo[2,1-b][1,3]oxazol-5-yl]-N-{1-[(4-fluorophenyl)sulfonyl]piperidin-4-yl}pyrimidin-2-amine]	0.675 µM	
COc1ccc(C(=O)N2CCC(Nc3nccc(-c4c(-c5ccc(F)cc5)nc5occn45)n3)CC2)cc1 [Example 158, 4-[6-(4-fluorophenyl)imidazo[2,1-b][1,3]oxazol-5-yl]-N-[1-(4-methoxybenzoyl)piperidin-4-yl]pyrimidin-2-amine]	0.465 µM	
O=C(c1ccccc1)N1CCC(Nc2nccc(-c3c(-c4ccc(F)cc4)nc4occn34)n2)CC1 [Example 159, N-(1-benzoylpiperidin-4-yl)-4-[6-(4-fluorophenyl)imidazo[2,1-b][1,3]oxazol-5-yl]pyrimidin-2-amine]	1.01 µM	
O=C(COc1ccc(Cl)cc1)N1CCC(Nc2nccc(-c3c(-c4ccc(F)cc4)nc4occn34)n2)CC1 [Example 160, N-{1-[(4-chlorophenoxy)acetyl]piperidin-4-yl}-4-[6-(4-fluorophenyl)imidazo[2,1-b][1,3]oxazol-5-yl]pyrimidin-2-amine]	3.85 µM	
O=C(c1cccc2cccnc12)N1CCC(Nc2nccc(-c3c(-c4ccc(F)cc4)nc4occn34)n2)CC1 [Example 161, 4-[6-(4-fluorophenyl)Imidazo[2,1-b][1,3]oxazol-5-yl]-N-[1-(quinolin-8-ylcarbonyl)piperidin-4-yl]pyrimidin-2-amine]	1.57 µM	
O=C(C1CCNCC1)N1CCC(Nc2nccc(-c3c(-c4ccc(F)cc4)nc4occn34)n2)CC1 [Example 162, 4-[6-(4-fluorophenyl)imidazo[2,1-b][1,3]oxazol-5-yl]-N-[1-(piperidin-4-ylcarbonyl)piper-idin-4-yl]pyrimidin-2-amine]	1.32 µM	
COCC(=O)N1CCC(Nc2nccc(-c3c(-c4ccc(F)cc4)nc4occn34)n2)CC1 [Example 163, 4-[6-(4-fluorophenyl)imidazo[2,1-b][1,3]oxazol-5-yl]-N-[1-(methoxyacetyl)piperidin-4-yl]pyrimidin-2-amine]		53%
O=C(C1CCCCC1)N1CCC(Nc2nccc(-c3c(-c4ccc(F)cc4)nc4occn34)n2)CC1 [Example 164, N-[1-(cyclohexylcarbonyl)piperidin-4-yl]-4-[6-(4-fluorophenyl)imidazo[2,1-b][1,3]oxazol-5-yl]pyrimidin-2-amine]		38%
O=C(c1ccncc1)N1CCC(Nc2nccc(-c3c(-c4ccc(F)cc4)nc4occn34)n2)CC1 [Example 165, 4-[6-(4-fluorophenyl)imidazo[2,1-b][1,3]oxazol-5-yl]-N-(1-isonicotinoylpiperidin-4-yl)pyrimidin-2-amine]		33%
O=C(c1ccco1)N1CCC(Nc2nccc(-c3c(-c4ccc(F)cc4)nc4occn34)n2)CC1 [Example 166, 4-[6-(4-fluorophenyl)imidazo[2,1-b][1,3]oxazol-5-yl]-N-[1-(2-furoyl)piperidin-4-yl]pyrimidin-2-amine]		76%
